The values that follow come from patent US7456165B2, “HCV NS5B inhibitors” (Bristol-Myers Squibb Company, priority 2006, dated 2008).

pEC50, pIC50: −log10 of the molar value.

One assay concerns HCV replicon cells. Put plainly: HCV replicon FRET assay. The settings on record: Hepatitis C virus. It counts as cell-based. The text has this:
FRET Assay Preparation. To perform the HCV FRET screening assay, 96-well cell culture plates were used. The FRET peptide (Anaspec, Inc.) (Taliani et al., Anal Biochem. 1996, 240, 60-67) contains a fluorescence donor, EDANS, near one end of the peptide and an acceptor, DABCYL, near the other end. The fluorescence of the peptide is quenched by […] resonance energy transfer (RET) between the donor and the acceptor, but as the NS3 protease cleaves the peptide the products are released from RET quenching and the fluorescence of the donor becomes apparent. The assay reagent was made as follows: 5× cell Luciferase cell culture lysis reagent from Promega (#E153A) diluted to 1× with dH2O, NaCl added to 150 mM final, the FRET peptide diluted to 20 μM final from a 2 mM stock.
To prepare plates, HCV replicon cells, with or without a Renilla luciferase reporter gene, were trypsinized and placed into each well of a 96-well plate with titrated test compounds added in columns 3 through 12; columns 1 and 2 contained a control compound (HCV protease inhibitor), and the bottom row contained cells without compound. The plates were then placed in a CO2 incubator at 37° C.
Assays. Subsequent to addition of the test compounds described above (FRET Assay Preparation), at various times the plate was removed and Alamar blue solution (Trek Diagnostics, #00-100) was added per well as a measure of cellular toxicity. After reading in a Cytoflour 4000 instrument (PE Biosystems), plates were rinsed with PBS and then used for FRET assay by the addition of 30 ul of the FRET peptide assay reagent described above (FRET Assay Preparation) per well. The plate was then placed into the Cytoflour 4000 instrument which had been set to 340 excite/490 emission, automatic mode for 20 cycles and the plate read in a kinetic mode. Typically, the signal to noise using an endpoint analysis after the reads was at least three-fold. Alternatively, after Alamar blue reading, plates were rinsed with PBS, 50 ul of DMEM (high glucose) without phenol red was added and plates were then used for luciferase assay using the Promega Dual-Glo Luciferase Assay System.
Compound analysis was determined by quantification of the relative HCV replicon inhibition and the relative cytotoxicity values. To calculate cytoxicity values, the average Alamar Blue fluorescence signals from the control wells were set as 100% non-toxic. The individual signals in each of the compound test wells were then divided by the average control signal and multiplied by 100% to determine […]. To calculate the HCV replicon inhibition values, an average background value was obtained from the two wells containing the highest amount of HCV protease inhibitor at the end of the assay period. These numbers were similar to those obtained from naïve Huh-7 cells.
The background numbers were then subtracted from the average signal obtained from the control wells and this number was used as 100% activity. The individual signals in each of the compound test wells were then divided by the averaged control values after background subtraction and multiplied by 100% to determine percent activity. EC50 values for a protease inhibitor titration were calculated as the concentration which caused a 50% reduction in FRET or luciferase activity. The two numbers generated for the compound plate, percent cytoxicity and percent activity were used to determine compounds of interest for further analysis.
In general terms: Replicon systems follow genome replication, usually without infectious particles.

The target in the next assay is T1, HCV NS5B (Hepatitis C virus genotype 1b, UniProt Q9WMX2).
T1 construct: The protein was expressed with an 18 amino acid C-terminal truncation to enhance the solubility; made in house; host or cells: E. coli BL21(DE3)
In words: HCV NS5B RdRp enzyme assay (preincubation protocol). It counts as biochemical. As to conditions: HCV NS5B RdRp genotype 1b. Here is the method: HCV NS5B RdRp cloning, expression, and purification. The cDNA encoding the NS5B protein of HCV, genotype 1b, was cloned into the pET21a expression vector. The protein was expressed with an 18 amino acid C-terminal truncation to enhance the solubility. The E. coli competent cell line BL21(DE3) was used for expression of the protein. Cultures were grown at 37° C. for ˜4 hours until the cultures reached an optical density of 2.0 at 600 nm. The cultures were cooled to 20° C. and induced with 1 mM IPTG. Fresh ampicillin was added to a final concentration of 50 μg/ml and the cells were grown overnight at 20° C.
Cell pellets (3 L) were lysed for purification to yield 15-24 mgs of purified NS5B. The lysis buffer consisted of 20 mM Tris-HCl, pH 7.4, 500 mM NaCl, 0.5% triton X-100, 1 mM DTT, 1 mM EDTA, 20% glycerol, 0.5 mg/ml lysozyme, 10 mM MgCl2, 15 ug/ml deoxyribonuclease I, and Complete TM protease inhibitor tablets (Roche). After addition of the lysis buffer, frozen cell pellets were resuspended using a tissue homogenizer. To reduce the viscosity of the sample, aliquots of the lysate were sonicated on ice using a microtip attached to a Branson sonicator. The sonicated lysate was centrifuged at 100,000×g for 1 hr at 4° C. and filtered through a 0.2 μm filter unit (Corning).
The protein was purified using three sequential chromatography steps: Heparin sepharose CL-6B, polyU sepharose 4B, and Hitrap SP sepharose (Pharmacia). The chromatography buffers were identical to the lysis buffer but contained no lysozyme, deoxyribonuclease I, MgCl2 or protease inhibitor and the NaCl concentration of the buffer was adjusted according to the requirements for charging the protein onto the column. Each column was eluted with a NaCl gradient which varied in length from 5-50 column volumes depending on the column type. After the final chromatography step, the resulting purity of the enzyme is >90% based on SDS-PAGE analysis. The enzyme was aliquoted and stored at −80° C.
Standard HCV NS5B RdRp enzyme assay. HCV RdRp genotype 1b assays were run in a final volume of 60 μl in 96 well plates (Costar 3912 H. The assay buffer is composed of 20 mM Hepes, pH 7.5, 2.5 mM KCl, 2.5 mM MgCl2, 1 mM DTT, 1.6 U RNAse inhibitor (Promega N2515), 0.1 mg/ml BSA (Promega R3961), and 2% glycerol. All compounds were serially diluted (3-fold) in DMSO and diluted further in water such that the final concentration of DMSO in the assay was 2%. HCV RdRp genotype 1b enzyme was used at a final concentration of 28 nM. A polyA template was used at 6 nM, and a biotinylated oligo-dT12 primer was used at 180 nM final concentration. Template was obtained commercially (Amersham 27-4110). Biotinylated primer was prepared by Sigma Genosys. 3H-UTP was used at 0.6 μCi (0.29 μM total UTP). Reactions were initiated by the addition of enzyme, incubated at 30° C. for 60 min, and stopped by adding 25 μl of 50 mM EDTA containing SPA beads (4 μg/μl, Amersham RPNQ 0007 H. Plates were read on a Packard Top Count NXT after >1 hr incubation at room temperature.
Modified HCV NS5B RdRp enzyme assay. A modified enzyme assay was performed essentially as described for the standard enzyme assay except for the following: The biotinylated oligo dT12 primer was precaptured on streptavidin-coated SPA beads by mixing primer and beads in assay buffer and incubating at room temperature for one hour. Unbound primer was removed after centrifugation. The primer-bound beads were resuspended in 20 mM Hepes buffer, pH 7.5 and used in the assay at final concentrations of 20 nM primer and 0.67 μg/μl beads. Order of addition in the assay: enzyme (14 nM) was added to diluted compound followed by the addition of a mixture of template (0.2 nM), 3H-UTP (0.6 μCi, 0.29 μM), and primer-bound beads, to initiate the reaction; concentrations given are final. Reactions were allowed to proceed for 4 hours at 30° C.
IC50 values for compounds were determined using seven different [I]. […]

T1 sequence (Q9WMX2 2420-2992): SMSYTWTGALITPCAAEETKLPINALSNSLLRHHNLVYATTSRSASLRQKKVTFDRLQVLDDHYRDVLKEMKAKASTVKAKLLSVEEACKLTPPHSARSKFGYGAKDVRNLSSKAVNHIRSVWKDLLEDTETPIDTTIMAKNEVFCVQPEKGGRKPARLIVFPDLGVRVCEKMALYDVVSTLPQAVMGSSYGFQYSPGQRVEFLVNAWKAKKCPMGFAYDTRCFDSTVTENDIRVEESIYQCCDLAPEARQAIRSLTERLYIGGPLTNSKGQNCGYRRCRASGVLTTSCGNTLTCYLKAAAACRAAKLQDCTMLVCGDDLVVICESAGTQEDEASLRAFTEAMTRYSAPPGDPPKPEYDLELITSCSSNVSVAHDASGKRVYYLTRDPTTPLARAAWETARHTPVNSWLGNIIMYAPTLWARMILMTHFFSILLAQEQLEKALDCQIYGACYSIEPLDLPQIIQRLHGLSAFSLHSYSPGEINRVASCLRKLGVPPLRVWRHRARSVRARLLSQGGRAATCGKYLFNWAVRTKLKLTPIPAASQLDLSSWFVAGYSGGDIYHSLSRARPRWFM

As for `O=C(O)c1ccc2c(C3CCCCC3)c3n(c2c1)CC(c1nnn(CC2CCCO2)n1)=Cc1ccccc1-3` (centres unmarked) [Example 8, 13-cyclohexyl-6-[2-[(tetrahydro-2-furanyl)methyl]-2H-tetrazol-5-yl]-5H-indolo[2,1-a][2]benzazepine-10-carboxylic acid], the pEC50 with HCV replicon cells is less than 6.30. This compound gave a pIC50 on HCV NS5B of 6.30 to 9.00.

In the assay on HCV replicon cells, `O=C(O)c1ccc2c(C3CCCCC3)c3n(c2c1)CC(c1nnnn1CC1CCCO1)=Cc1ccccc1-3` (centres unmarked) [Example 10, 13-cyclohexyl-6-[1-[(tetrahydro-2-furanyl)methyl]-1H-tetrazol-5-yl]-7H-indolo[2,1-a][2]benzazepine-10-carboxylic acid] had a pEC50 of less than 6.30. The same compound gave a pIC50 against HCV NS5B of 6.30 to 9.00.

`O=C(O)c1ccc2c(C3CCCCC3)c3n(c2c1)CC(c1nnn(CC2CCOCC2)n1)=Cc1ccccc1-3` [Example 11, 13-cyclohexyl-6-[2-[(tetrahydro-2H-pyran-4-yl)methyl]-2H-tetrazol-5-yl]-7H-indolo[2,1a][2]benzazepine-10-carboxylic acid] showed a pEC50 in the assay on HCV replicon cells of less than 6.30. Further, on HCV NS5B, the negative-log IC50 (pIC50) is 6.30 to 9.00.

`O=C(O)c1ccc2c(C3CCCCC3)c3n(c2c1)C=C(c1nnn(CC2CCOCC2)n1)Cc1ccccc1-3` [Example 12, 13-cyclohexyl-6-[2-[(tetrahydro-2H-pyran-4-yl)methyl]-2H-tetrazol-5-yl]-5H-indolo[2,1-a][2]benzazepine-10-carboxylic acid] gave a pEC50 in the assay with HCV replicon cells of less than 6.30. Further, the pIC50 at HCV NS5B was less than 6.30.

As for `O=C(O)c1ccc2c(C3CCCCC3)c3n(c2c1)CC(c1nnnn1CC1CCOCC1)=Cc1ccccc1-3` [Example 13, 13-cyclohexyl-6-[1-[(tetrahydro-2H-pyran-4-yl)methyl]-1H-tetrazol-5-yl]-7H-indolo[2,1-a][2]benzazepine-10-carboxylic acid], in the assay with HCV replicon cells, the pEC50 was less than 6.30. For the same compound, at HCV NS5B, the pIC50 is 6.30 to 9.00.

With `O=C(O)c1ccc2c(C3CCCCC3)c3n(c2c1)C=C(c1nnnn1CC1CCOCC1)Cc1ccccc1-3` [Example 14, 13-cyclohexyl6-[1-[(tetrahydro-2H-pyran-4-yl)methyl]-1H-tetrazol-5-yl]-5H-indolo[2,1-a][2]benzazepine-10-carboxylic acid], in the assay on HCV replicon cells, the pEC50 is less than 6.30. Besides, the pIC50 against HCV NS5B is less than 6.30.

Consider `CN(C)S(=O)(=O)NC(=O)c1ccc2c(C3CCCCC3)c3n(c2c1)CC(c1nnn(CC2CCOCC2)n1)=Cc1ccccc1-3` [Example 15, 13-cyclohexyl-N-[(dimethylamino)sulfonyl]-6-[2-[(tetrahydro-2H-pyran-4-yl)methyl]-2H-tetrazol-5-yl]-7H-indolo[2,1-a][2]benzazepine-10-carboxamide], for which, in the assay with HCV replicon cells, the pEC50 was less than 6.30. The pIC50 against HCV NS5B was 6.30 to 9.00.

The compound `COc1ccc2c(c1)C=C(c1nnn(CC3CCOCC3)n1)Cn1c-2c(C2CCCCC2)c2ccc(C(=O)O)cc21` [Example 16, 13-cyclohexyl-3-methoxy-6-[2-[(tetrahydro-2H-pyran-4-yl)methyl]-2H-tetrazol-5-yl]-7H-indolo[2,1-a][2]benzazepine-10-carboxylic acid] showed a pEC50 in the assay with HCV replicon cells of less than 6.30. In addition, the pIC50 on HCV NS5B is 6.30 to 9.00.

Take `COc1ccc2c(c1)C=C(c1nnn(CC3CCOCC3)n1)Cn1c-2c(C2CCCCC2)c2ccc(C(=O)NS(=O)(=O)N(C)C)cc21` [Example 17, 13-cyclohexyl-N-[(dimethylamino)sulfonyl]-3-methoxy-6-[2-[(tetrahydro-2H-pyran-4-yl)methyl]-2H-tetrazol-5-yl]-7H-indolo[2,1-a][2]benzazepine-10-carboxamide]: the pEC50 with HCV replicon cells is 6.30 to 9.00. Also, the pIC50 against HCV NS5B was 6.30 to 9.00.

For `O=C(O)c1ccc2c(C3CCCCC3)c3n(c2c1)CC(c1n[nH]c(=O)o1)=Cc1ccccc1-3` [Example 19, 13-cyclohexyl-6-(4,5-dihydro-5-oxo-1,3,4-oxadiazol-2-yl)-7H-indolo[2,1-a][2]benzazepine-10-carboxylic acid], in the assay on HCV replicon cells, the pEC50 was less than 6.30. Further, the pIC50 at HCV NS5B is 6.30 to 9.00.

`O=C(O)c1ccc2c(C3CCCCC3)c3n(c2c1)CC(c1nn(CC2CCOCC2)c(=O)o1)=Cc1ccccc1-3` [Example 21, 13-cyclohexyl-6-[4,5-dihydro-5-oxo-4-[(tetrahydro-2H-pyran-4-yl)methyl]-1,3,4-oxadiazol-2-yl]-7H-indolo[2,1-a][2]benzazepine-10-carboxylic acid] showed a pEC50 with HCV replicon cells of less than 6.30. This compound also gave a pIC50 against HCV NS5B of 6.30 to 9.00.

As for `O=C(O)c1ccc2c(C3CCCCC3)c3n(c2c1)CC(c1n[nH]c(CC2CCOCC2)n1)=Cc1ccccc1-3` [Example 22, 13-cyclohexyl-6-[3-[(tetrahydro-2H-pyran-4-yl)methyl]-1H-1,2,4-triazol-5-yl]-7H-indolo[2,1-a][2]benzazepine-10-carboxylic acid], in the assay on HCV replicon cells, the pEC50 is less than 6.30. In addition, the pIC50 against HCV NS5B was 6.30 to 9.00.

For the compound `COC(=O)c1ccc2c(C3CCCCC3)c3n(c2c1)CC(c1nc(C)no1)=Cc1ccccc1-3` [Example 23, 13-cyclohexyl-6-(3-methyl-1,2,4-oxadiazol-5-yl)-7H-indolo[2,1-a][2]benzazepine-10-carboxylic acid, methyl ester], the pEC50 with HCV replicon cells is less than 6.30. At HCV NS5B, this compound showed a pIC50 of less than 6.30.

Usually pEC50 stands for −log10 of the EC50, conventionally taken in molar units. The low end stands for a high EC50, the high end for a low EC50. Broadly, the pIC50 is the IC50 on a negative log10 scale, so that one unit is a factor of ten.
